Experiment [1] deals with C. auris CBS12373. Nature of the experiment: Broth microdilution MIC. To be noted: for MIC against C. auris / MIC: CBS 12 373; for MIC against C. auris: RPMI 1640 with MOPS, 5 × 10^3 CFU ml^−1, ≥90% reduction (≥50% for fluconazole); for MIC: value in brackets, read-out: MIC against C. auris. In kind it is cell-based, Candida auris. (In general: Dilution methods test growth across graded concentrations, often in twofold steps.)

The subject of another experiment is C. auris CBS 10913. Nature of the experiment: microbe, parasite or virus in culture. Type of experiment: cell-based, Candida auris. To be noted: C. auris CBS 10913. The method, then:
Amphotericin B was tested in parallel as a positive control (Ramesh et al. [2023]).

In experiment [2] the test system is C. auris CBS10913. To be noted: CBS 10 913; RPMI 1640 with MOPS, 5 × 10^3 CFU ml^−1; ≥90% reduction (≥50% for fluconazole).
The test system of experiment [3] is C. auris CBS10913. Nature of the experiment: microbe, parasite or virus in culture. To be noted: Candidozyma auris, read-out: MIC against C. auris.
Experiment [4] has as its system C. auris CBS10913. The experiment in a line: Checkerboard microdilution synergy test. In kind it is cell-based, Candida auris. The method, then: (§1) The checkerboard microdilution test was performed to determine the fractional inhibitory concentration (FIC) of selected antimicrobials and assess whether the combination had synergistic, antagonistic, or indifferent effects (Anon [2016]) against strains of K. pneumoniae or C. auris. […] Additionally, a strain susceptible to ciprofloxacin was tested to observe the outcome of its combination with TM8 as a representative case from susceptible isolates. […] Then, 10 µl of bacteria (5 × 10^6 CFU ml^−1) or C. auris (2.5 × 10^4 CFU ml^−1) were added to each well, except for the sterility control well. […] The sterility control wells contained only MHB (or RPMI in case of C. auris), and the growth control contained 110 µl of microbial inoculum with no antimicrobials. Subsequently, the plates were incubated for 18- 24 hours at 36 ± 1 °C.
(§2) The FIC for each combination interaction was calculated as follows:
(§3) Then, the summation of FIC (ƩFIC) was calculated for each antimicrobial combination as follows: ƩFIC = FICA + FICB. The results were interpretated as follows: Synergy if ƩFIC ≤ 0.5; Additive if 0.5<ƩFIC ≤ 1; Indifference if […] ≤ 4; and Antagonism if ƩFIC > 4 (Odds [2003]). All antimicrobial synergy experiments were repeated in at least two independent runs.

For experiment [5], the system named is C. auris CBS12373. Nature of the experiment: Checkerboard microdilution synergy test. Type of experiment: cell-based, Candida auris. As for the experimental part:
as §1, §2, §3

For experiment [6], the system named is C. auris CBS12373 biofilm. Nature of the experiment: Anti-adherence (biofilm prevention), MTT reduction assay. Type of experiment: cell-based, Candida auris. The method, then:
Finally, 3-(4,5-Dimethylthiazol 2-yl)-2,5-diphenyltetrazolium bromide (MTT) reduction assay was performed to observe the metabolic activities of C. auris.
In general terms: Tetrazolium assays rely on reduction of a dye to a coloured formazan, in cell work by metabolically active cells.

Experiment [7] relates to C. auris CBS12373 biofilm. The experiment in a line: Initial biofilm inhibition, MTT reduction assay. Type of experiment: cell-based, Candida auris.
In experiment [8] the test system is C. auris CBS12373 biofilm. Type of experiment: cell-based, Candida auris. To be noted: for Mature biofilm inhibition, blank corrected 570 nm, av. of readings: MTT absorbance. The method, then:
To assess disruption of mature biofilms, 2 × 10^5 cells were cultured for 2 h in 96-well flat bottom microtiter plates at 37°C, washed, then incubated for 48 h in fresh media to form mature biofilm. […] For each activity test, the metabolic activities of the yeast cells in biofilms were measured by MTT reduction assay after washing the disrupted biofilm with PBS (Srivastava and Ahmad [2020]).

In another experiment the test system is A. baumannii 005. Nature of the experiment: MIC Test Strip MBL (imipenem, imipenem with EDTA). In kind it is cell-based. The note with it: Acinetobacter baumannii, Mueller–Hinton agar, 20 h, 37°C, read-out: Imipenem IMI (MIC, MBL strip). The method, then:
(§4) The test was performed as per the manufacturer’s instructions. Briefly, the strips were applied to a lawn culture of bacteria maintained at 1.5 × 10^8 CFU ml^−1 on Mueller–Hinton agar (Oxoid, UK) and incubated for 20 h at 37°C.

Another experiment concerns A. baumannii 006. The experiment in a line: MIC Test Strip MBL (imipenem, imipenem with EDTA). Type of experiment: cell-based. To be noted: Acinetobacter baumannii, Mueller–Hinton agar, 20 h, 37°C, read-out: Imipenem IMI (MIC, MBL strip). The method, then: as §4
For another experiment, the system named is A. baumannii 007. Nature of the experiment: MIC Test Strip MBL (imipenem, imipenem with EDTA). In kind it is cell-based. The note with it: Acinetobacter baumannii, Mueller–Hinton agar, 20 h, 37°C, read-out: Imipenem IMI (MIC, MBL strip). As for the experimental part:
as §4

In another experiment the test system is A. baumannii 008. The experiment in a line: MIC Test Strip MBL (imipenem, imipenem with EDTA). Type of experiment: cell-based. To be noted: Acinetobacter baumannii, Mueller–Hinton agar, 20 h, 37°C, read-out: Imipenem IMI (MIC, MBL strip). The method, then: as §4
The test system of a further experiment is K. pneumoniae JIE2709. The experiment in a line: MIC Test Strip MBL (imipenem, imipenem with EDTA). Type of experiment: cell-based. To be noted: Klebsiella pneumoniae, Mueller–Hinton agar, 20 h, 37°C, read-out: Imipenem IMI (MIC, MBL strip). As for the experimental part:
as §4

A further experiment has as its system K. pneumoniae JIE2713. The experiment in a line: MIC Test Strip MBL (imipenem, imipenem with EDTA). Type of experiment: cell-based. To be noted: Klebsiella pneumoniae, Mueller–Hinton agar, 20 h, 37°C, read-out: Imipenem IMI (MIC, MBL strip). As for the experimental part: as §4
Another experiment relates to P. aeruginosa 33. Nature of the experiment: MIC Test Strip MBL (imipenem, imipenem with EDTA). To be noted: Pseudomonas aeruginosa, Mueller–Hinton agar, 20 h, 37°C, read-out: Imipenem IMI (MIC, MBL strip). Type of experiment: cell-based. As for the experimental part: as §4
For a further experiment, the system named is P. aeruginosa AR-1270. The experiment in a line: MIC Test Strip MBL (imipenem, imipenem with EDTA). Type of experiment: cell-based. The note with it: Pseudomonas aeruginosa, AR1270, Mueller–Hinton agar, 20 h, 37°C, read-out: Imipenem IMI (MIC, MBL strip). The method, then:
as §4

Where [9] appears, read: Candidozyma auris, read-out: MIC of DrugB (alone, checkerboard).

The structures appear in SMILES notation. Converted amounts (≈) assume the structure as drawn. Where two headings read alike, the source gives them in different places.

Turning to `C[C@@H]1[C@H](O)[C@@H](C)/C=C/C=C/C=C/C=C/C=C/C=C/C=C/[C@H](O[C@@H]2O[C@H](C)[C@@H](O)[C@H](N)[C@@H]2O)C[C@@H]2O[C@](O)(C[C@@H](O)C[C@@H](O)[C@H](O)CC[C@@H](O)C[C@@H](O)CC(=O)O[C@H]1C)C[C@H](O)[C@H]2C(=O)O` [Amphotericin B, reference compound], the “MIC against C. auris” value in the experiment with C. auris CBS12373 [1] and against C. auris CBS10913 [2] was 0.25 µg/mL (≈ 0.271 µM) each time. Moreover, the MIC with C. auris CBS12373 [1] (Candidozyma auris) was 0.27 µM (≈ 0.25 µg/mL); with C. auris CBS 10913 (Candidozyma auris, CBS10913, RPMI, read-out: MIC in the absence of ergosterol), 0.25 µg/mL (≈ 0.271 µM); in the experiment on C. auris CBS10913 [3] it was 0.27 µM (≈ 0.25 µg/mL). Further, the “Increase in MIC with ergosterol” value with C. auris CBS 10913 (ergosterol 200 µg ml^−1) is reported as “five-fold”.
`OC(Cn1cncn1)(Cn1cncn1)c1ccc(F)cc1F` [Fluconazole, reference compound]: the “MIC against C. auris” value in the experiment on C. auris CBS12373 [1] was 128 µg/mL (≈ 418 µM); against C. auris CBS10913 [2], 1 µg/mL (≈ 3.27 µM). Moreover, the MIC90 in the experiment with C. auris CBS12373 [1] (Candidozyma auris, C. auris CBS12373 suspension used in the antibiofilm study, read-out: MIC90) turned out to be 512 µg/mL (≈ 1670 µM). Further, the MIC with C. auris CBS12373 [1] (Candidozyma auris) was found to be 418 µM (≈ 128 µg/mL); with C. auris CBS10913 [4] (setting [9]), 1 µg/mL; in the experiment on C. auris CBS12373 [5] (setting [9]), 128 µg/mL; with C. auris CBS10913 [3], 3.3 µM (≈ 1.01 µg/mL). Further, the FICDrugB with C. auris CBS10913 [4] (in combination with TM8) and with C. auris CBS12373 [5] (in combination with TM8) was 0.0625 throughout. The “MF of antibiotic (modulation factor)” value in the experiment with C. auris CBS10913 [4] (in combination with TM8) and with C. auris CBS12373 [5] (in combination with TM8 (0.5× MIC)) was 16 each time. For the same compound, the “Biofilm tolerance factor-prevention (BPC/MIC)” value in [6] is 8. Besides, the “Anti-adherence (BPC)” value in experiment [6] (2 h adhesion with agent, 48 h growth, ≥90% reduction) is 4096 µg/mL. The “Biofilm tolerance factor-inhibition (MBIC/MIC)” value in experiment [7] is on record as 4. Besides, the “Initial biofilm MBIC” value in experiment [7] (4 h adhesion, then 48 h with agent, ≥90% reduction) worked out at 2048 µg/mL. Besides, in experiment [8] (C. auris CBS12373, 48 h biofilm, then 24 h with agent, MTT, ≥90% reduction), the “Mature biofilm MBEC” value came out at 2048 µg/mL. Moreover, the “Biofilm tolerance factor-eradication (MBEC/MIC)” value in [8] (C. auris CBS12373, MTT) came out at 4. The “Mature biofilm inhibition, blank corrected 570 nm, av. of readings” value in experiment [8] (agent at 4 (growth control 1.918)) is listed as 2.95; in experiment [8] (agent at 8 (growth control 1.918)), 2.348; in experiment [8] (agent at 16 (growth control 1.918)), 2.232; in [8] (agent at 32 (growth control 1.918)), 2.12; in experiment [8] (agent at 64 (growth control 1.918)) it was 2.186; in experiment [8] (agent at 128 (growth control 1.918)), 0.95. The “Mature biofilm inhibition, blank corrected 570 nm, av. of readings” value in [8] (agent at 256 (growth control 1.918)) was found to be 0.345; in [8] (agent at 512 (growth control 1.918)), 0.145; in experiment [8] (agent at 1024 (growth control 1.918)), 0.104; in experiment [8] (agent at 2048 (growth control 1.918)), 0.008.
As to `C[C@@H](O)[C@H]1C(=O)N2C(C(=O)O)=C(SCCN=CN)C[C@H]12` [Imipenem, imipenem], the MIC was determined as 64 µg/mL (≈ 214 µM) with A. baumannii 005; 64 µg/mL (≈ 214 µM) with A. baumannii 006; 96 µg/mL (≈ 321 µM) in the experiment with A. baumannii 007; 48 µg/mL (≈ 160 µM) with A. baumannii 008; 16 µg/mL (≈ 53.4 µM) in the experiment with K. pneumoniae JIE2709; 128 µg/mL (≈ 428 µM) in the experiment with K. pneumoniae JIE2713. For the same compound, the MIC came to 8 µg/mL (≈ 26.7 µM) in the experiment with P. aeruginosa 33 and 16 µg/mL (≈ 53.4 µM) with P. aeruginosa AR-1270.

The record behind these values is article PMC11879280, “Antimicrobial activity of peptoids against Metallo-β-lactamase-producing Klebsiella pneumoniae, Acinetobacter baumannii, Pseudomonas aeruginosa, and other WHO priority pathogens, including Candida auris” (Journal of Applied Microbiology, 2025).
